# Entries after “also recorded” stand apart in the source; their conditions may differ. No end group written: not given here. *: point of attachment. Biotin = O=C1N[C@H]2[C@H](CS[C@H]2CCCCC(=O)*)N1
# Target: T1, WWP3 WW domain expressed as GST fusion protein (Homo sapiens, UniProt Q96QZ7)
# T1 construct: made in house
# Assay: ELISA based cross affinity mapping, WWP3 WW domain
# Format: binding
# Conditions: biotinylated peptide-streptavidin/alkaline phosphatase complex
# Procedure: The 16 day mouse embryo cDNA expression library was diluted 1:1000 in SM solution (100 mM NaCl, 8 mM MgSOv4, 50 mM Tris HCl pH 7.5, 0.01% gelatin). To a sterile test tube, 2 μl of diluted mouse embryo library, 100 μl of 10 mM CaCl2, 100 μl of 10 mM MgCl2 and 100 μl of BL21(DE3)pLysE bacterial cells (grown overnight) were added and incubated for 30 minutes at 37° C. The contents of the tube were mixed with 3 ml of 0.6% top agarose, containing […] chloramphenicol, and poured onto a 2xYT plate (90 mm diameter). For a large primary screen, 10–20 plates were prepared with 3×10^4 pfu per plate. After 6 hours incubation at 37° C., a nitrocellulose filter soaked in 10 mM isopropyl-β-D-thiogalactopyranoside (IPTG) was overlaid on each plate and incubated 3–6 hours at 37° C. Before the filters were removed from the plates, they were marked asymmetrically with India ink in a 18 gauge syringe needle. The plates were stored at 4° C. until ready for the secondary screen. The filters were washed with PBS (137 mM NaCl, 2.7 mM KCl, 4.3 mM Na2HPO4, 1.4 mM KH2PO4)-0.05% Triton X-100 three times at room temperature, 15 minutes each wash, and then placed in a plastic bag containing non-specific blocking solution (PBS-2% BSA) for one hour. In the meantime, 1 ml of 1 mM biotinylated peptide in PBS-0.1% Tween 20 was added to 20 ml of 1 mg/ml streptavidin-alkaline phosphatase (SA-AP) in PBS-0.1% Tween 20 and incubated at 4° C. for 30 minutes. As an alternative method of forming multivalent complexes, 50 pmol biotinylated peptide could have been incubated with 2 μg SA-AP (for a biotin:biotin-binding site ratio of 1:1). Excess biotin-binding sites would then be blocked by addition of 500 pmol biotin. As a further alternative, 31.2 μl of 1 mg/ml SA-AP could have been incubated with 15 μl of 0.1 mM biotinylated peptide for 30 min at 4° C. Ten μl of 0.1 mM biotin would then be added, and the solution incubated for an additional 15 min.
# To determine the ligand preferences of the novel WW omain-containing clones described in Sections 6.1 and 6.1.1, as well as addressing the issue of whether peptides containing PPPPY (SEQ ID NO:3)-like motifs derived from a variety of proteins could also serve as recognition units and bind to these clones, a cross affinity mapping experiment was performed (FIGS. 15A–D). The peptides shown in FIGS. 15A–D were synthesized, biotinylated, complexed with streptavidin-alkaline phosphatase, and tested in an ELISA based assay for their ability to bind to the twelve individual novel WW domains of WWP1, WWP2, WWP3 and WWP4 which were expressed as GST fusion proteins. The ELISA based cross-affinity experiments were performed essentially as described by Sparks et al. (1996, Proc. Natl. Acad. Sci. 93:1540–1544) with the following modifications. Briefly, microtiter wells were coated with 1–5 μg of fusion protein in 100 mM NaHCO3, blocked with SuperBlock TBS (Pierce) and washed four times with PBS, 0.05% Tween 20. Specific peptide-streptavidin/alkaline phosphatase complexes were added as above and unbound complexes washed five times with PBS, 0.05% Tween 20. Following addition of PNP substrate (p-nitrophenyl phosphate, Kirkegard & Perry Labs), peptide binding was quantitated after 30 min. at O.D. 405 nm. Relative binding measurements from three independent determinations were assigned to a scale as follows: O.D. units 0–0.5=(−), 0.5–1.0=(+), 1.0–2.0=(++), 2.0–3.0=(+++), >3.0=(++++). Peptide binding to human Fyn and Lyn SH3 and SH2 domains was assessed by a filter binding assay (see Section 6.1 and Sparks et al., 1996, Proc. Natl. Acad. Sci 93:1540–1544). […]
# T1 sequence (Q96QZ7 300-337 limits assumed): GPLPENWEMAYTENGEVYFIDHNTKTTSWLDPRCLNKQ
row,Substance,binding to WWP3 WW domain
1,Biotin-SGSGPGTPPPPYTVGPGY [WBP-1],not
2,Biotin-SGSGPGTPYPPPPEFY [WBP-2B],not
3,Biotin-SGSGYVQPPPPPYPGPM [WBP-2A],specifically binds; also recorded: bound
